Results: US20130202657A1, “FOAMS OR PARTICLES FOR APPLICATIONS SUCH AS DRUG DELIVERY” (BASF SE, priority 2010, published 2013)

Legend:
[1] = Solubility of APIs in PVPVA (thin layer dried on glass slide, optical microscopy); type: physicochemical; details: % by mass in PVPVA; bright-field and cross-polarized optical microscopy
Protocol: The effect of API loading on PVPVA foams was studied next. To make API-laden polymer foams, a model API was added to the polymer before foaming. Clotrimazole and cholesterol were used in this example as model APIs. PVPVA was loaded with the API at concentrations ranging from 0% by mass to 30% by mass, as described above. The solubility of APIs in PVPVA was first tested by dissolving both the API and the polymer in a solvent, then spreading a thin layer on a glass slide to dry. […] These crystals were visible under bright-field and cross-polarized optical microscopy. […] Solid solutions of clotrimazole were obtained at up to 20% loading.

[2] = at typical operating pressures and temperatures; cited from earlier work

Structure (SMILES): CC(C)CCC[C@@H](C)[C@H]1CC[C@H]2[C@@H]3CC=C4C[C@@H](O)CC[C@]4(C)[C@H]3CC[C@]12C [cholesterol]
- API loading in PVPVA at which crystals precipitate [1]: about 30%
- solubility in CO2 [2]: about 2 g/l
